According to PubChem BioAssay AID2374 (NMMLSC, 2010):

Biological target: Cell division control protein 42 homolog (Homo sapiens) (UniProt P60953)
Assay: Cdc42 activation blockers via PAK binding – biochemical, purified His-Cdc42, PAK-PBD pull-down, Western blot, orthogonal assay for Ras-related GTPase inhibitor project, late-stage follow-up (AID 2374)
Conditions: His-Cdc42 GTPgS loading, at 10 µM, stronger effect = higher value

Chain of Cell division control protein 42 homolog (Homo sapiens) (P60953 whole entry, looked up): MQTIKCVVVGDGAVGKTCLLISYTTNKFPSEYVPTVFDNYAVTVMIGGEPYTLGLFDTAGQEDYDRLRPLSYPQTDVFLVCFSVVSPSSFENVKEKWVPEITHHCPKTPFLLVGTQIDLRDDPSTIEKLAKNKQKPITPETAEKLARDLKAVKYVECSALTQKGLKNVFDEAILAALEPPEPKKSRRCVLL

inhibition (at 0.1 uM GTPgS): 96%
inhibition (at 0.5 uM GTPgS): 94%
inhibition: 60%
SMILES: COc1ccc(C2CC(c3ccccc3)=NN2c2ccc(S(N)(=O)=O)cc2)cc1 (stereo not drawn)
